One data set addresses human mGluR3 (hmGluR3) (Homo sapiens, UniProt Q14832). As to the kind of experiment: mGluR3 negative allosteric modulator activity. It counts as cell-based.
Data set [1] has as its target T1, human mGluR2 (hmGluR2) transiently over-expressed in HEK-293 cells (Homo sapiens, UniProt Q14416).
T1 construct: expressed in transfected cells; host or cells: HEK-293 cells, transient co-transfection by electroporation
As to the kind of experiment: Human mGluR2 negative allosteric modulator evaluation using Ca++ functional assay (agonist and NAM activity). It counts as cell-based. The following applies: hmGluR2 in HEK-293 cells, EC80 glutamate, Fluo4AM calcium readout; read-out: mGluR2 negative allosteric modulator activity IC50. The procedure, abridged: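 Compound alone (agonist mode) was followed on the same plate by EC80 glutamate (NAM mode), with fluorescence read 60 s. Eight-point curves, variable-slope fit, duplicate, two independent runs.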

T1 sequence (Q14416 19-872): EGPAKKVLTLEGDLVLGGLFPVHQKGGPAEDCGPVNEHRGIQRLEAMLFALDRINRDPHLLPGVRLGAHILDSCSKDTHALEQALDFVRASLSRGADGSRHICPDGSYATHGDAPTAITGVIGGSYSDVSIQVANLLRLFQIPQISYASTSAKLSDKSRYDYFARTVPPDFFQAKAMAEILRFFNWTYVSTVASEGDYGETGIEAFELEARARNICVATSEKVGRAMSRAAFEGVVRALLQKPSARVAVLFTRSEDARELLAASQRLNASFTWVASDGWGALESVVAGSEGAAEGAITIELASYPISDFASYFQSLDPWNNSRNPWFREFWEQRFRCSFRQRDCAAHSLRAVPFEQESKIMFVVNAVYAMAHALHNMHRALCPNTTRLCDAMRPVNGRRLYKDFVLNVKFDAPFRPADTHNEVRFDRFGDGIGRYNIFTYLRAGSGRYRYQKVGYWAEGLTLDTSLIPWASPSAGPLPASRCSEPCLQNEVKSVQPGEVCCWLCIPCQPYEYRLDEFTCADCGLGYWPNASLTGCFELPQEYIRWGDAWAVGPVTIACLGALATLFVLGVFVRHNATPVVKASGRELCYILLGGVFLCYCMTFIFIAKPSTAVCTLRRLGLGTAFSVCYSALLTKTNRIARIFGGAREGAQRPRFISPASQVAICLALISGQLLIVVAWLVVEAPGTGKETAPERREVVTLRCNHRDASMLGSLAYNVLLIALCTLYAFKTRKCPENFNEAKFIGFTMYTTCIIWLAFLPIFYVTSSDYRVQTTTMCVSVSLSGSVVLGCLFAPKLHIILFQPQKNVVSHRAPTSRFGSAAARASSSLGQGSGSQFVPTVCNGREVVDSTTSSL
Chain of human mGluR3 (hmGluR3) (Q14832 23-879): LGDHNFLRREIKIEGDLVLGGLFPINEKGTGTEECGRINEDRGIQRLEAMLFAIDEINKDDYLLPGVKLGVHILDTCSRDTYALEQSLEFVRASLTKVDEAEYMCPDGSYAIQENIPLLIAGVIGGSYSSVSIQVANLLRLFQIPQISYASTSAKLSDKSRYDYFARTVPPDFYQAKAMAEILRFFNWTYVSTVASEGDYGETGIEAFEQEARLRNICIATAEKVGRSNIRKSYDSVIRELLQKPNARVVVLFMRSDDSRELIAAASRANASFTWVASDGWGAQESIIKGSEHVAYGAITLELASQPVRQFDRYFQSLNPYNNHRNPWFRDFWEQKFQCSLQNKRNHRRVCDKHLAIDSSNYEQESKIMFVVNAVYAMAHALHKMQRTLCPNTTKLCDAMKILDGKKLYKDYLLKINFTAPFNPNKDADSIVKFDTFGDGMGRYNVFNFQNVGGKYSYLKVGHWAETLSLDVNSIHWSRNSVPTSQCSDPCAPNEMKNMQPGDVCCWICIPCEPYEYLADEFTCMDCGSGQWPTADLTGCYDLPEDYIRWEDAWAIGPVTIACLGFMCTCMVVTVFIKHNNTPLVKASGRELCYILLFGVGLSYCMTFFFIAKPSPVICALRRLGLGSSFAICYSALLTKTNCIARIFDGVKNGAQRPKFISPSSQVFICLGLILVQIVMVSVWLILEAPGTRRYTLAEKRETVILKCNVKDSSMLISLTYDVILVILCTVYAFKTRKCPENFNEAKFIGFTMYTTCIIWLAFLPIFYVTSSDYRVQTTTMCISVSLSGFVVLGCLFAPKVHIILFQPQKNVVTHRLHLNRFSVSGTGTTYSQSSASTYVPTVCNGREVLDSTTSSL

Broadly, the IC50 is the point on the concentration scale where inhibition reaches its midpoint. The melting point is the temperature, or range, at which the solid turns liquid. In turn, `Cn1c(=O)c2ccc(-c3cccc(C(=O)O)c3)cc2n2nc(-c3ccccc3)cc12` [Example 34, 3-(4-Methyl-5-oxo-2-phenyl-4,5-dihydro-pyrazolo[1,5-a]quinazolin-8-yl)-benzoic Acid] had a melting point above 250 °C. At human mGluR3 (hmGluR3), this compound returned an IC50 below 1000 nM. For the same compound, the IC50 in data set [1] is below 1000 nM.
`CCn1c(=O)c2ccc(-c3ccc(N)nc3)cc2n2nc(C3CCCC3)cc12.Cl` [Example 69, 8-(6-Amino-pyridin-3-yl)-2-cyclopentyl-4-ethyl-4H-pyrazolo[1,5-a]quinazolin-5-one] came in with a melting point above 250 °C. The compound also showed an IC50 at human mGluR3 (hmGluR3) below 1000 nM. Also, the IC50 in data set [1] is below 1000 nM.
`CCc1ncccc1-c1ccc2c(=O)n(C)c3cc(-c4ccnc(C(F)(F)F)c4)nn3c2c1.Cl` [Example 137, 8-(2-Ethyl-pyridin-3-yl)-4-methyl-2-(2-trifluoromethyl-pyridin-4-yl)-4H-pyrazolo[1,5-a]quinazolin-5-one] showed a melting point above 250 °C. The IC50 in data set [1] was below 1000 nM.
The like results for `Cc1cc(-c2ccc3c(=O)n(C)c4cc(-c5ccnc(C(F)(F)F)c5)nn4c3c2)ccn1.Cl` [Example 138, 4-Methyl-8-(2-methyl-pyridin-4-yl)-2-(2-trifluoromethyl-pyridin-4-yl)-4H-pyrazolo[1,5-a]quinazolin-5-one] were, in that order, above 250 °C and below 1000 nM.
On to `Cn1c(=O)c2ccc(-c3ccnc(C(F)(F)F)c3)cc2n2nc(-c3ccnc(C(F)(F)F)c3)cc12` [Example 139, 4-Methyl-2,8-bis-(2-trifluoromethyl-pyridin-4-yl)-4H-pyrazolo[1,5-a]quinazolin-5-one], for which the melting point is above 250 °C. Moreover, the IC50 in data set [1] is below 1000 nM.
The like results for `Cn1c(=O)c2ccc(-c3ccnc(F)c3)cc2n2nc(-c3ccnc(C(F)(F)F)c3)cc12` [Example 140, 8-(2-Fluoro-pyridin-4-yl)-4-methyl-2-(2-trifluoromethyl-pyridin-4-yl)-4H-pyrazolo[1,5-a]quinazolin-5-one] were, in that order, above 250 °C and below 1000 nM.
In turn, `Cn1c(=O)c2ccc(-c3ccc(F)nc3)cc2n2nc(-c3ccnc(C(F)(F)F)c3)cc12` [Example 141, 8-(6-Fluoro-pyridin-3-yl)-4-methyl-2-(2-trifluoromethyl-pyridin-4-yl)-4H-pyrazolo[1,5-a]quinazolin-5-one] gave a melting point above 250 °C. Further, the IC50 in data set [1] was below 1000 nM.
Turning to `Cc1ccc(-c2ccc3c(=O)n(C)c4cc(-c5ccnc(C(F)(F)F)c5)nn4c3c2)c(C)n1.Cl` [Example 143, 8-(2,6-Dimethyl-pyridin-3-yl)-4-methyl-2-(2-trifluoromethyl-pyridin-4-yl)-4H-pyrazolo[1,5-a]quinazolin-5-one], the melting point is above 250 °C. Also, the IC50 in data set [1] was below 1000 nM.
Regarding `Cc1ncncc1-c1ccc2c(=O)n(C)c3cc(-c4ccnc(C(F)(F)F)c4)nn3c2c1.Cl` [Example 144, 4-Methyl-8-(4-methyl-pyrimidin-5-yl)-2-(2-trifluoromethyl-pyridin-4-yl)-4H-pyrazolo[1,5-a]quinazolin-5-one], the melting point was above 250 °C. The IC50 in data set [1] is below 1000 nM.
`Cc1n[nH]c(C)c1-c1ccc2c(=O)n(C)c3cc(-c4ccnc(C(F)(F)F)c4)nn3c2c1` [Example 145, 8-(3,5-Dimethyl-1H-pyrazol-4-yl)-4-methyl-2-(2-trifluoromethyl-pyridin-4-yl)-4H-pyrazolo[1,5-a]quinazolin-5-one] registered a melting point above 250 °C. Further, the IC50 in data set [1] is below 1000 nM.
The compound `Cc1cc(-c2cc3n(C)c(=O)c4ccc(-c5c(C)n[nH]c5C)cc4n3n2)cc(C)n1.Cl` [Example 146, 8-(3,5-Dimethyl-1H-pyrazol-4-yl)-2-(2,6-dimethyl-pyridin-4-yl)-4-methyl-4H-pyrazolo[1,5-a]quinazolin-5-one] showed a melting point above 250 °C. Besides, in data set [1], the IC50 was below 1000 nM.
The like results for `Cc1cc(-c2cc3n(C)c(=O)c4ccc(-c5c[nH]nc5C(F)(F)F)cc4n3n2)cc(C)n1.Cl` [Example 147, 2-(2,6-Dimethyl-pyridin-4-yl)-4-methyl-8-(3-trifluoromethyl-1H-pyrazol-4-yl)-4H-pyrazolo[1,5-a]quinazolin-5-one] were, in that order, above 250 °C and below 1000 nM.

These data come from patent US9434734B2, “Substituted pyrazoloquinazolinones and pyrroloquinazolinones as allosteric modulators of group II metabotropic glutamate receptors” (Domain Therapeutics, priority 2012, dated 2016).
